Holding throughout (experiment): inhibition of tumour cell growth, NCI panel, 48 h
The subject of assay [1] is SK-MEL-28 melanoma.
Assay [2] relates to SNB-75 CNS.
The subject of assay [3] is SN12C renal.
Assay [4] has as its system K-562 leukemia.
The test system of assay [5] is UO-31 renal.
Assay [6] has as its system SK-MEL-2 melanoma.
Assay [7] has as its system UACC-257 melanoma.
The test system of assay [8] is UACC-62 melanoma.
The test system of assay [9] is OVCAR-4 ovarian.
The subject of assay [10] is CAKI-1 renal.

Several values for one entry are separate records, joined by “and”; a condition that tells them apart may be missing. Equal entries are not always repeated.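 Exposure lasted 48 hours, with cells grown in 96-well plates and compounds tested at five concentrations. The concentration for 50% growth inhibition is given as GI50. TGI is the concentration that stops growth completely.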 A value given as a limit tells only on which side of the number the result lay.

Regarding `Fc1ccc(-c2ncn(C3CCNCC3)c2-c2ccnc(Oc3ccc(F)c(F)c3)n2)cc1`, the GI50 was 4.57 µM in assay [1]; 8.64 µM in assay [2]; 6.24 µM in [3]; 7.56 µM in [4]; 6.25 µM in [5]; 6.84 µM in [6]. Further, the GI50 in assay [7] is 4.76 µM; in [8] it was 4.99 µM; in [9], 5.91 µM; in [10], 10.6 µM. Further, the TGI in assay [1] was 8.79 µM; in assay [2], greater than 25 µM; in assay [3] it was greater than 14.6 µM; in [4], greater than 19.9 µM; in [5], greater than 25 µM; in assay [6], 14.5 µM. In addition, the TGI is 9.15 µM in assay [7], 10.3 µM in [8], 18.3 µM in [9] and greater than 20.6 µM in assay [10].

On to `CCOC(=O)C(=O)Nc1ccc(Cl)cc1C`, for which the TGI in assay [1], in assay [2], in assay [3], in assay [4], in [5] and in assay [6] was greater than 100 µM throughout. Further, the TGI in assay [7], in assay [8], in assay [9] and in [10] was greater than 100 µM each time.

For the compound `O=C(O)c1ccc(S(=O)(=O)Nc2ccc3oc4c(c3c2)C(=O)CCC4)cc1`, the GI50 in assay [1], in assay [2], in [3], in [4], in assay [5] and in [6] was greater than 100 µM each time. Moreover, the GI50 in [7], in assay [8], in assay [9] and in [10] was greater than 100 µM throughout. The TGI in assay [1], in assay [2], in assay [3], in assay [4], in assay [5] and in assay [6] was greater than 100 µM each time. The TGI in [7], in assay [8], in assay [9] and in assay [10] was greater than 100 µM in each case.

Take `CC(=O)N1c2ccccc2NC2=C(C(=O)N(Cc3ccccc3)C2(C)C)C1c1ccco1` (configuration not stated): the GI50 in [1] was greater than 25 µM; in [2] it was 0.841 µM; in assay [3], 0.589 µM; in assay [4], 0.166 µM; in assay [5] it was 1.23 µM; in assay [6] it was 1.03 µM. Besides, the GI50 was greater than 25 µM in assay [7], 0.373 µM in assay [8], greater than 6.37 µM in [9] and 3.41 µM in [10]. The TGI in assay [1] is greater than 25 µM; in assay [2], greater than 5.78 µM; in assay [3], greater than 25 µM; in assay [4], greater than 25 µM; in assay [5] it was greater than 25 µM; in assay [6], greater than 25 µM. Besides, the TGI in [7], in assay [8], in assay [9] and in [10] was greater than 25 µM throughout.

For the compound `CN(CCc1ccccn1)c1nc(=[N+](C)C)ss1`, the TGI in assay [1], in assay [2], in assay [3], in [4], in assay [5] and in [6] was greater than 100 µM each time. Further, the TGI in assay [7], in [8], in assay [9] and in assay [10] was greater than 100 µM throughout.

In the case of `CN(C)C/C=C/C(=O)Nc1cc2c(Nc3ccc(F)c(Cl)c3F)ncnc2cc1OCCOC(F)F`, the GI50 in [1] was 2.29 µM; in [2] it was 0.162 µM; in [3], 0.136 µM; in assay [4], 0.519 µM; in [5], less than 0.01 µM; in [6], 1.46 µM. The GI50 in assay [7] was 2.18 µM; in [8], 1.45 µM; in assay [9] it was 1.18 µM; in [10], less than 0.01 µM. Besides, the TGI is 9.59 µM in [1]; 2.47 µM in [2]; 4.52 µM in assay [3]; 11.3 µM in assay [4]; 1.78 µM in assay [5]; 3.36 µM in [6]. Further, the TGI turned out to be 10.3 µM in assay [7], 4.46 µM in assay [8], 10.7 µM in assay [9] and 1.13 µM in [10].

Regarding `O=C(Cc1csc(-c2nc(CC(=O)NNc3ccccc3)cs2)n1)NNc1ccccc1`, the TGI in [1], in assay [2], in assay [3], in assay [4], in assay [5] and in assay [6] was greater than 100 µM each time. Moreover, the TGI in assay [7], in [8], in assay [9] and in assay [10] was greater than 100 µM each time.

As for `COc1ccc(C[C@@H]2NC[C@@H](O)[C@@H]2OC(C)=O)cc1`, the TGI is 0.127 µM in [1], 0.0692 µM in assay [2], greater than 100 µM in assay [4] and 0.3 µM in assay [6]. Also, the GI50 is 3.19 µM in assay [3]; 1.1 µM in assay [4]; 44.6 µM in assay [5]; 2.33 µM in assay [7]; 3.19 µM in assay [8]; 25.9 µM in assay [9]. For the same compound, the GI50 in assay [10] was 30.3 µM.

As to `C#CCN(N=O)C(=O)NC(CCCNC(=O)OCc1ccccc1)C(=O)OCc1ccccc1` (configuration not stated), the TGI in [1], in [2], in assay [3], in [4], in assay [5] and in assay [6] was greater than 100 µM each time. Besides, the TGI in assay [7] is greater than 100 µM; in assay [8] it was greater than 100 µM; in assay [9] it was greater than 100 µM; in assay [10] it was 47.2 µM.

As to `CN(C)CCNC(=O)c1cccc2c(Nc3ccc(S(N)(=O)=O)cc3)c3ccccc3nc12`, the TGI was determined as 3 µM in assay [1]; 4.48 µM in assay [2]; 3.9 µM in assay [3]; 9.61 µM in assay [4]; 7.44 µM in assay [5]; 3.69 µM in assay [6]. In addition, the TGI in [7] stood at 9.83 µM; in [8], 3.42 µM; in assay [9], 5.77 µM; in assay [10] it was 13.6 µM.

With `COc1ccc(-c2nc(C(=O)c3ccccc3)n(CC(=O)c3ccccc3)c2-c2ccc(OC)cc2)cc1`, the GI50 in [1], in [2], in [3], in assay [4], in assay [5] and in [6] was greater than 100 µM each time. For the same compound, the GI50 in assay [7], in assay [8], in assay [9] and in [10] was greater than 100 µM in each case. The TGI in assay [1], in [2], in assay [3], in assay [4], in assay [5] and in assay [6] was greater than 100 µM in each case. For the same compound, the TGI in assay [7], in assay [8], in assay [9] and in assay [10] was greater than 100 µM throughout.

For `NCCN.NCCN.O=C[O-].O=C[O-].[Co+3].[O-][Cl+3]([O-])([O-])[O-]`, the GI50 in assay [1], in assay [2], in [3], in assay [4], in [5] and in [6] was greater than 100 µM in each case. Also, the GI50 in assay [7], in assay [8], in [9] and in [10] was greater than 100 µM in each case. The TGI in assay [1], in assay [2], in [3], in [4], in [5] and in assay [6] was greater than 100 µM throughout. The TGI in assay [7], in [8], in assay [9] and in assay [10] was greater than 100 µM throughout.

With `Cc1ccc(NC(=O)C(=O)CC(=O)C2CCOC2=O)c(C)c1` (configuration not stated), the TGI in assay [1], in assay [2], in [3], in [4], in assay [5] and in assay [6] was greater than 100 µM in each case. The TGI in assay [7], in [8], in assay [9] and in [10] was greater than 100 µM in each case.

In the case of `N#CC(C#N)N=Nc1ccc(Br)cc1`, the GI50 in assay [1] was 3.41 µM; in assay [2], 13.7 µM; in assay [3], 2.64 µM; in [4], 3.02 µM; in assay [5], 1.26 µM; in assay [6], 8.97 µM. In addition, the GI50 is 2.12 µM in assay [7], 1.91 µM in [8], 2 µM in assay [9] and 2.05 µM in assay [10]. The TGI was 26.5 µM in [1]; greater than 100 µM in [2]; 9.51 µM in assay [3]; greater than 100 µM in [4]; 7.05 µM in [5]; 36.1 µM in assay [6]. The TGI in assay [7] amounted to 7.54 µM; in assay [8], 10.9 µM; in [9] it was 37.9 µM; in assay [10] it was 12.1 µM.

As to `CN(CC#N)C1CCCC[C@H]1O` (some centres not stated), the TGI in assay [1], in assay [2], in [3], in [4], in [5] and in assay [6] was greater than 100 µM in each case. Also, the TGI in assay [7], in assay [8], in assay [9] and in [10] was greater than 100 µM throughout.

Take `C[C@@H](CN1CC(=O)NC(=O)C1)N1CC(=O)NC(=O)C1`: the TGI in assay [1] amounted to 1750 µM; in [2] it was 929 µM; in [3], 906 µM; in assay [4], 2500 µM; in assay [5], 1060 µM; in assay [6], 754 µM. Further, the TGI in assay [7] amounted to 2390 µM; in assay [8], 570 µM; in assay [9] it was 1110 µM; in assay [10], 772 µM. The GI50 in assay [10] is 80.7 µM.

Turning to `O=S(=O)(N/N=C/c1cccc(Cl)c1Cl)c1ccccc1`, the TGI in [1], in assay [2], in [3], in assay [4], in [5] and in assay [6] was greater than 100 µM throughout. Also, the TGI in assay [7], in assay [8], in [9] and in assay [10] was greater than 100 µM in each case.

As for `O=C(CC1(O)C(=O)Nc2ccccc21)c1ccco1` (configuration not stated), the TGI in [1], in assay [2], in [3], in [4], in assay [5] and in assay [6] was greater than 100 µM in each case. For the same compound, the TGI in [7], in assay [8], in [9] and in assay [10] was greater than 100 µM each time.

In the case of `Nc1ncnc2c1c(-c1cccc(OCc3ccccc3)c1)cn2C1CC(CN2CCC2)C1` (configuration not stated), the GI50 in [1] is 1.33 µM and 1.63 µM; in assay [2] it was 1.7 µM and 2.29 µM; in assay [3], 4.59 µM and 5.75 µM; in assay [4], 1.71 µM and 2.08 µM; in [5], 1.31 µM and 1.75 µM; in assay [6] it was 1.58 µM and 2.21 µM. Also, the GI50 was 0.559 µM and 1.13 µM in [7]; 1.74 µM and 1.5 µM in assay [8]; 3.49 µM in [9]; 2.56 µM and 2.44 µM in assay [10]. Moreover, the TGI was 2.78 µM and 3.52 µM in assay [1]; 4.86 µM and 8.46 µM in assay [2]; 18 µM and > 10 µM in assay [3]; 4.43 µM and 6.32 µM in [4]; 4.34 µM and 9.79 µM in assay [5]; 3.36 µM and 6.1 µM in assay [6]. In addition, the TGI is 2.1 µM and 2.41 µM in assay [7]; 3.58 µM and 3.33 µM in assay [8]; 15.3 µM and > 10 µM in assay [9]; 11.4 µM and > 10 µM in assay [10].
